By IC50 is commonly meant the midpoint of a concentration-inhibition curve. For orientation: inhibition means the percentage by which the read-out fell short of the control.

Structures can show the parent of a compound that is named as a salt.

For test [1], the system named is RF strain of HIV (CEM-SS cells). In words: Cell Culture Anti-HIV Activity (cell viability, formazan). Format: cell-based. The conditions noted are these: Human immunodeficiency virus 1, CEM-SS, 144 h, CEM-SS cells, RF strain of HIV, multiplicity of infection 0.04, 6 days at 37° C., 450 nm; read-out: HIV (CEM Cells) IC50. A digest of the protocol: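 CEM-SS cells (5000/well) infected with HIV RF at MOI 0.04, exposed to half-log serial compound dilutions, incubated 6 days at 37° C. Viability read by tetrazolium reduction to formazan, absorbance 450 nm. IC50 is the concentration raising formazan in infected cells to 50% of uninfected, drug-free cells.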

A further test has as its target T1, HIV protease (Human immunodeficiency virus type 1 group M subtype B, UniProt P04585).
T1 construct: and purified protease
Briefly: HIV Protease Assay. Format: biochemical. Particulars: pH 5.5, 10 μM inhibitor, 4% DMSO, 450 μM substrate, pH 5.5, 30 minutes at 37° C., RP-HPLC; read-out: HIV Protease % Inhibition at 10 μM. In short, it runs like this: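 Purified protease cleaved 450 μM octapeptide substrate in 50 mM sodium acetate pH 5.5 with 100 μg/ml BSA for 30 minutes at 37° C; product analyzed by reverse-phase HPLC at UV220 after H3PO4 quench. Inhibitors tested at final 10 μM with 4% DMSO.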

Regarding `CC(C)[C@H](NC(=O)N(C)Cc1ccccn1)C(=O)N[C@@H](Cc1ccccc1)[C@H](O)CNC[C@@H](O)[C@H](Cc1ccccc1)NC(=O)OC(C)(C)C` [Compound 76, [S-[1R*,2S*(2S*,3R*)]]-N-[3-[[3-[[(1,1-Dimethylethoxy)carbonylamino]-2-hydroxy-4-phenylbutyl]amino]-2-hydroxy-1-(phenylmethyl)propyl]-N^2 [[methyl(2-pyridinyl-methyl)amino]carbonyl]-L-valinamide], in test [1], the IC50 amounted to 600 nM. On HIV protease, the inhibition at 10 µM is 100%.
`CC(C)[C@H](NC(=O)[C@@H](O)Cc1ccccc1)C(=O)N[C@@H](Cc1ccccc1)[C@H](O)CNC[C@@H](O)[C@H](Cc1ccccc1)NC(=O)OC(C)(C)C` [Compound 77, [S-[1R*,2S*(2S*,3R*,N^2 R*]]-N-[3-[[3-[[(1,-Dimethylethoxy)carbonyl]amino]-2-hydroxy-4-phenylbutyl]amino]-2-hydroxy-(phenyyl-methyl)propyl]N^2-(2-hydroxy-1-oxo-3-phenyl-propyl)-L-valinamide]: the half-maximal inhibitory concentration (IC50) in test [1] was 200 nM. Further, on HIV protease, the inhibition at 10 µM amounted to 99%.
With `CC(C)[C@H](NC(=O)[C@H](O)Cc1ccccc1)C(=O)N[C@@H](Cc1ccccc1)[C@H](O)CNC[C@@H](O)[C@H](Cc1ccccc1)NC(=O)OC(C)(C)C` [Compound 78, [S-[1R*,2S*[2S*,3R*,N1S*]-N-[3-[[3-[[(1,1-Dimethylethoxy)carbonyl]amino]-2-hydroxy-4-phenylbutyl]amino]-2-hydroxy-1-(phenylmethyl)[propyl]-N^2-(2-hydroxy-1-oxo-3-phenyl-propyl)-L-valinamide], the IC50 in test [1] came to 160 nM. Also, the inhibition at 10 µM at HIV protease is 99%.
With `CC(C)[C@H](NC(=O)c1ccc2ccccc2c1)C(=O)N[C@@H](Cc1ccccc1)[C@H](O)CNC[C@@H](O)[C@H](Cc1ccccc1)NC(=O)OC(C)(C)C` [Compound 79, [S-[1R*,2S*(2S*,3R*)]]-N-[3-[[3-[[(1,1-Dimethylethoxy)carbonyl]amino]-2-hydroxy-4-phenylbutyl]amino]-2-hydroxy-1-(phenylmethyl)propyl]-N^2 (2-naphthalenylcarbonyl)-L-valinamide], in test [1], the half-inhibitory concentration (IC50) amounted to 400 nM. In addition, the inhibition at 10 µM at HIV protease came out at 99%.
With `CC(C)[C@H](NC(=O)c1ccc2ccccc2n1)C(=O)N[C@@H](Cc1ccccc1)[C@H](O)CNC[C@@H](O)[C@H](Cc1ccccc1)NC(=O)OC(C)(C)C` [Compound 80, [S-[1R*,2S*(2S*,3R*)]]-N-[3-[[3-[[(1,1-Dimethylethoxy)carbonyl]amino]-2-hydroxy-4-phenylbutyl]amino]-2-hydroxy-1-(phenylmethyl)propyl]-N2-(2-quinolinylcarbonyl)-L-valinamide], in test [1], the concentration for half-maximal inhibition (IC50) is 300 nM. Also, at HIV protease, the inhibition at 10 µM was 98%.
With `CC(C)C(NC(=O)OCc1ccccc1)C(=O)NC(Cc1ccccc1)C(O)CNCC(O)C(Cc1ccccc1)NC(=O)C(NC(=O)OCc1ccccc1)C(C)C` [Compound 82, [S-[1R*,2R*(2S*,3R*)]]-N-[2-Hydroxy-3-[[2-hydroxy-4-phenyl-3-[[[N-(phenylmethoxy)carbonyl]-L-valyl]amino]butyl]amino]-1-(phenylmethyl)propyl]-N-^2-[(phenylmethoxy)carbonyl]-L-valinamide], in test [1], the IC50 is above 3000 nM. Also, at HIV protease, the inhibition at 10 µM came out at 94%.
Turning to `CC(C)[C@H](NC(=O)[C@@H](N)Cc1ccccc1)C(=O)N[C@@H](Cc1ccccc1)[C@H](O)CNC[C@@H](O)[C@H](Cc1ccccc1)NC(=O)OC(C)(C)C` [Compound 84, [S-[1R*,2S*(2S*,3R*)]-N-[3-[[3-[[(1,1-Dimethylethoxy)carbonyl]amino]-2-hydroxy-4-phenylbutyl]amino]-2-hydroxy-1-(phenylmethyl)propyl)-L-valyl]-L-phenylalanamide, fumarate (2:3) salt], the IC50 in test [1] turned out to be 1200 nM. For the same compound, on HIV protease, the inhibition at 10 µM was found to be 99%.
